Measurements as given in the supplement of paper PMC8882468.

How the values were obtained:
Assay in all cases: CTG-3D luminescence at 96 h relative to day-0 seeding control (ratio to day 0); higher = more growth / less cytotoxicity; PDxO 3D drug screen, 96 h, CTG-3D normalised to day-0 seeding control.
HCI-008 = test system: HCI-008 (organoid from a HER2-enriched breast cancer xenograft)
HCI-017.E2 = test system: HCI-017.E2 (organoid from an ER-positive breast cancer xenograft)
HCI-025 = test system: HCI-025 (organoid from a breast cancer xenograft)
MDA-MB-231 = test system: MDA-MB-231
HCI-005.E2 = test system: HCI-005.E2 (organoid from a breast cancer xenograft with a HER2-positive history)
HCI-019 = test system: HCI-019 (organoid from a triple-negative breast cancer xenograft)
HCI-016 = test system: HCI-016 (organoid from a triple-negative breast cancer xenograft)

Nc1ccn([C@@H]2O[C@H](CO)[C@@H](O)C2(F)F)c(=O)n1 [gemcitabine]
CTG-3D luminescence at 96 h
Conditions | 12.5 pM | 0.00025 µM | 0.005 µM | 0.1 µM | 1 µM | 10 µM | 100 µM | 625 fM
HCI-008, days in culture: 228 | 1.403 | 1.8 | 1.3404 | 0.6483 | 0.596 | 0.717 | 0.362 | 1.48
HCI-008, days in culture: 244 | 1.25 | 1.74 | 1.74 | 1.26 | 0.69 | 0.873 | 0.465 | 2.18
HCI-016, days in culture: 153 | 2.99 | 1.91 | 2.52 | 0.96 | 0.509 | 0.286 | 0.0753 | 2.4
HCI-016, days in culture: 172 | 1.95 | 1.97 | 1.64 | 0.366 | 0.257 | 0.0907 | 0.0466 | 1.66
HCI-016, days in culture: 190 | 1.61 | 1.34 | 1.52 | 0.261 | 0.268 | 0.122 | 0.0539 | 1.21
HCI-016, days in culture: 199 | 1.57 | 1.28 | 1.3 | 0.174 | 0.16 | 0.112 | 0.0387 | 1.49
HCI-017.E2, days in culture: 85 | 2.64 | 2.91 | 2.88 | 1.88 | 1.87 | 1.29 | 1.7 | 2.11
HCI-019, days in culture: 110 | 1.7 | 1.3 | 0.347 | 0.296 | 0.241 | 0.237 | 0.181 | 2.3
HCI-019, days in culture: 131 | 2.42 | 3.53 | 0.976 | 0.427 | 0.344 | 0.344 | 0.213 | 3.6
HCI-019, days in culture: 152 | 2.8 | 4.1 | 0.623 | 0.432 | 0.375 | 0.521 | 0.424 | 2.77
HCI-025, days in culture: 172 | 3.01 | 1.72 | 2.29 | 0.436 | 0.742 | 0.364 | 0.195 | 2.47
HCI-025, days in culture: 209 | 2.06 | 2.11 | 1.83 | 0.884 | 0.873 | 0.449 | 0.155 | 1.79
HCI-025, days in culture: 218 | 1.86 | 2.09 | 1.77 | 0.5 | 0.362 | 0.365 | 0.143 | 1.79

CTG-3D luminescence at 96 h
Conditions | 12.5 pM | 0.00025 µM | 0.005 µM | 0.1 µM | 1 µM | 10 µM | 100 µM | 625 fM
HCI-005.E2 | 1.6 | 1.96 | 1.71 | 0.511 | 0.224 | 0.406 | 0.438 | 1.65
HCI-017.E2 | 2.08 | 2.07 | 1.97 | 1.88 | 1.74 | 1.54 | 1.67 | 2.23
MDA-MB-231 | 4.42 | 4.37 | 4.14 | 2.62 | 2 | 1.11 | 0.848 | 4.44

COc1cccc2c1C(=O)c1c(O)c3c(c(O)c1C2=O)C[C@@](O)(C(=O)CO)C[C@@H]3O[C@H]1C[C@H](N)[C@H](O)[C@H](C)O1 [doxorubicin]
CTG-3D luminescence at 96 h
Conditions | 12.5 pM | 0.00025 µM | 0.005 µM | 0.1 µM | 1 µM | 10 µM | 100 µM | 625 fM
HCI-008, days in culture: 228 | 1.33 | 1.91 | 1.48 | 1.51 | 0.743 | 0.19 | 0.0571 | 1.87
HCI-008, days in culture: 244 | 1.19 | 1.9 | 1.52 | 2.09 | 0.849 | 0.198 | 0.0903 | 2.37
HCI-016, days in culture: 153 | 2.98 | 1.26 | 2.02 | 0.665 | 0.19 | 0.0767 | 0.0122 | 2.51
HCI-016, days in culture: 172 | 2.04 | 1.45 | 1.73 | 1.29 | 0.194 | 0.0836 | 0.0359 | 1.97
HCI-016, days in culture: 190 | 1.66 | 1.38 | 1.27 | 0.803 | 0.316 | 0.118 | 0.0242 | 1.26
HCI-016, days in culture: 199 | 1.35 | 1.52 | 1.53 | 1.33 | 0.159 | 0.232 | 0.0264 | 1.7
HCI-017.E2, days in culture: 85 | 2.94 | 3.18 | 2.56 | 2.01 | 1.71 | 0.616 | 0.808 | 2.4
HCI-019, days in culture: 110 | 1.69 | 1.56 | 1.49 | 1.03 | 0.296 | 0.00454 | -0.00853 | 1.91
HCI-019, days in culture: 131 | 3.03 | 3.8 | 2.31 | 1.47 | 0.314 | 0.00725 | -0.0127 | 4.1
HCI-019, days in culture: 152 | 3.43 | 3.12 | 2.32 | 1.57 | 0.409 | 0.00363 | -0.00918 | 2.03
HCI-025, days in culture: 172 | 2.56 | 1.67 | 2.22 | 1.81 | 0.663 | -0.00377 | -0.0121 | 2.18
HCI-025, days in culture: 209 | 2.17 | 2.18 | 2.33 | 1.37 | 0.406 | 0.0188 | -0.00838 | 1.45
HCI-025, days in culture: 218 | 1.71 | 1.89 | 1.74 | 1.66 | 0.23 | 0.0154 | -0.0116 | 1.66

CTG-3D luminescence at 96 h
Conditions | 12.5 pM | 0.00025 µM | 0.005 µM | 0.1 µM | 1 µM | 10 µM | 100 µM | 625 fM
HCI-005.E2 | 1.5 | 1.93 | 1.21 | 1.07 | 0.557 | -0.00289 | -0.00667 | 1.71
HCI-017.E2 | 1.87 | 2.06 | 2.07 | 1.89 | 1.2724 | 0.484 | 0.598 | 2.26
MDA-MB-231 | 4.38 | 4.45 | 4.38 | 3.75 | 1.48 | 0.458 | 0.288 | 4.4

CC(C)(C(=O)NCC(F)(F)C(F)(F)F)C(=O)N[C@@H]1C(=O)Nc2ccccc2-c2ccccc21
CTG-3D luminescence at 96 h
Conditions | 12.5 pM | 0.00025 µM | 0.005 µM | 0.1 µM | 1 µM | 10 µM | 100 µM | 625 fM
HCI-008, days in culture: 228 | 1.74 | 1.41 | 1 | 1.3 | 1.17 | 1.68 | 1.05 | 1.81
HCI-008, days in culture: 244 | 1.18 | 1.67 | 1.24 | 1.59 | 1.45 | 1.45 | 0.931 | 2.05
HCI-016, days in culture: 153 | 2.8 | 1.65 | 2.24 | 1.56 | 1.82 | 1.88 | 0.801 | 2.19
HCI-016, days in culture: 172 | 2.46 | 1.82 | 1.92 | 1.28 | 1.18 | 1.37 | 0.772 | 1.91
HCI-016, days in culture: 190 | 1.8 | 1.23 | 1.17 | 1.04 | 1.47 | 1.46 | 0.817 | 1.22
HCI-016, days in culture: 199 | 1.59 | 1.04 | 1.35 | 1.51 | 1.42 | 1.67 | 0.796 | 1.63
HCI-017.E2, days in culture: 85 | 2.5 | 2.8 | 2.42 | 1.44 | 1.19 | 1.24 | 1.25 | 2.29
HCI-019, days in culture: 110 | 1.83 | 1.52 | 1.54 | 2.23 | 1.47 | 2.09 | 1.37 | 1.84
HCI-019, days in culture: 131 | 2.53 | 3.17 | 3.05 | 3.09 | 2.31 | 3.61 | 2.28 | 4.34
HCI-019, days in culture: 152 | 3.04 | 2.87 | 3.36 | 1.92 | 2.19 | 2.41 | 1.12 | 1.98
HCI-025, days in culture: 172 | 2.02 | 2.24 | 3.81 | 2.44 | 2.2 | 2.06 | 0.839 | 2.75
HCI-025, days in culture: 209 | 1.5 | 1.73 | 1.93 | 1.61 | 1.83 | 2.01 | 0.831 | 1.47
HCI-025, days in culture: 218 | 2.02 | 1.91 | 1.95 | 1.42 | 1.45 | 2.15 | 1.22 | 2.19

CTG-3D luminescence at 96 h
Conditions | 12.5 pM | 0.00025 µM | 0.005 µM | 0.1 µM | 1 µM | 10 µM | 100 µM | 625 fM
HCI-005.E2 | 1.47 | 1.48 | 1.45 | 1.8 | 1.18 | 1.29 | 1.03 | 1.54
HCI-017.E2 | 1.84 | 2.1 | 2.09 | 2.12 | 2.04 | 1.78 | 1.23 | 2.06
MDA-MB-231 | 4.58 | 4.53 | 4.6 | 4.48 | 4.6 | 4.7 | 4.04 | 4.6

O=C(O)C1(C(=O)O)CCC1.[NH2-].[NH2-].[Pt+2] [carboplatin]
CTG-3D luminescence at 96 h
Conditions | 12.5 pM | 0.00025 µM | 0.005 µM | 0.1 µM | 1 µM | 10 µM | 100 µM | 625 fM
HCI-008, days in culture: 228 | 1.58 | 2.29 | 1.79 | 2.05 | 1.57 | 1.31 | 0.0629 | 1.63
HCI-008, days in culture: 244 | 1.2 | 1.8 | 1.7 | 2.09 | 1.78 | 1.89 | 0.158 | 1.98
HCI-016, days in culture: 153 | 3.27 | 2.03 | 2.66 | 2.2 | 2.81 | 0.866 | 0.0935 | 2.64
HCI-016, days in culture: 172 | 2.27 | 2.25 | 1.89 | 1.3 | 1.71 | 0.761 | 0.139 | 1.78
HCI-016, days in culture: 190 | 1.49 | 1.29 | 1.53 | 1.17 | 1.46 | 0.642 | 0.12 | 1.18
HCI-016, days in culture: 199 | 1.55 | 1.29 | 1.34 | 1.29 | 1.64 | 0.782 | 0.081 | 1.86
HCI-017.E2, days in culture: 85 | 2.99 | 2.47 | 2.94 | 2.35 | 2.71 | 2.18 | 2.37 | 2.62
HCI-019, days in culture: 110 | 1.39 | 1.76 | 1.53 | 2.63 | 1.29 | 1.16 | 0.26 | 1.97
HCI-019, days in culture: 131 | 2.21 | 3.56 | 2.77 | 2.39 | 2.12 | 1.23 | 0.234 | 3.26
HCI-019, days in culture: 152 | 2.94 | 2.48 | 2.23 | 1.4 | 1.99 | 1.4 | 0.291 | 1.64
HCI-025, days in culture: 172 | 2.56 | 1.71 | 3.2 | 1.24 | 2.75 | 1.11 | 0.15 | 1.35
HCI-025, days in culture: 209 | 1.97 | 1.73 | 1.67 | 1.49 | 1.79 | 0.85 | 0.119 | 1.86
HCI-025, days in culture: 218 | 1.73 | 1.73 | 1.72 | 2.01 | 1.43 | 1.14 | 0.203 | 1.73

CTG-3D luminescence at 96 h
Conditions | 12.5 pM | 0.00025 µM | 0.005 µM | 0.1 µM | 1 µM | 10 µM | 100 µM | 625 fM
HCI-005.E2 | 1.69 | 2.11 | 1.73 | 1.87 | 1.51 | 1.24 | 0.225 | 1.47
HCI-017.E2 | 1.88 | 2.076 | 2.32 | 2.4 | 2.25 | 2.08 | 1.9 | 1.97
MDA-MB-231 | 4.49 | 4.27 | 4.51 | 4.46 | 4.4 | 4.16 | 3.05 | 4.47
